Patent US20240360081A1, “SULFONAMIDE OREXIN RECEPTOR AGONISTS AND USES THEREOF” (Jazz Pharmaceuticals Ireland Limited, priority 2021, published 2024)

biological target: T1, human recombinant OX2 (hOX2) receptor expressed in CHO cells (Homo sapiens, UniProt O43614); assay: IP-1 accumulation assay (IP-One HTRF) in hOX2-CHO cells; type: cell-based; conditions: 60 min at 37° C., 11 points CRC, response as % of maximal OX-A response
T1 construct: host or cells: CHO cells (hOX2-CHO)
T1 sequence (O43614 1-444): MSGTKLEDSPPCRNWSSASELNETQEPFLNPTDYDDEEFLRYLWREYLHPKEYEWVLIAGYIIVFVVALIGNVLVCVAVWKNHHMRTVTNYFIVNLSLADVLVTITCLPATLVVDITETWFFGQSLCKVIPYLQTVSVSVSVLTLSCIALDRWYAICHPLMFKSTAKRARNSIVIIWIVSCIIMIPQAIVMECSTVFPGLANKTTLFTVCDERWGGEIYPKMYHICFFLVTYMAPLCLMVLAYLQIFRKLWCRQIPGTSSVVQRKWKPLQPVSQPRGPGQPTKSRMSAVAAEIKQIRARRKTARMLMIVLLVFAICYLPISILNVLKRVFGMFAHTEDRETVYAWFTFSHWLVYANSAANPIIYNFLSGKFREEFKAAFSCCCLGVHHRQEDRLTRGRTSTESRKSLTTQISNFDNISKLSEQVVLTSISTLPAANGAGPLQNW
Description: The accumulation of Inositol-1 Monophosphate (IP-1) was measured using IP-One HTRF® Terbium cryptate based assay (Cisbio) in human recombinant OX1 (hOX1) and at OX2 (hOX2) receptors expressed in CHO cells (DiscoverX) according to the manufacturer's instructions for cells tested in suspension.
hOX1-CHO and hOX2-CHO cells were seeded into white 384-well plates at a density of 20,000 cells/well in Hank's Balanced Salt Solution (HBSS) containing 20 mM HEPES pH 7.4, 50 mM, LiCl and 0.1% and Bovine Serum Albumin (BSA).
Compounds of the present disclosure were tested in a 11 points concentration response curve (CRC) serially diluted in neat DMSO at 200 fold concentrations and added by Echo acoustic liquid handling (Labcyte) to the cells (0.5% DMSO final in the assay). After 60 min of incubation at 37° C. detection reagents, IP1-d2 tracer and anti-IP1-cryptate were diluted in lysis buffer according to the manufacturer's descriptions and added to the cells.
Following 60 min incubation at room temperature, time-resolved fluorescence (HTRF) was measured at 615 nm and 665 nm by Envision Multilabel reader (Perkin Elmer) and the HTRF ratio (A665/A615x104) was calculated.
The IP-1 accumulation response was expressed as percentage of the maximal OX-A response.
Curve fitting and EC50 estimations were carried out using a four-parameter logistic model using XLfit Software. Mean data of EC50 are calculated from at least two independent experiments performed in duplicates.
In the Tables, below Category A corresponds to compounds displaying an […]<100 nM, Category B between 100 nM and 1,000 nM, Category C between 1,000 nM and 10,000 nM and Category D above 10,000 nM.

EC50	SMILES
< 0.1 µM	Cc1cc(C(CNS(=O)(=O)CF)CO[C@H]2CC[C@@H](c3cccc(F)c3)CC2)c(=O)n(C)c1 (single isomer, unassigned; isomer 1) [Example 5n, (R or S) N-[2-(1,5-dimethyl-2-oxo-1,2-dihydropyridin-3-yl)-3-{[(CIS)-4-(3-fluorophenyl)cyclohexyl]oxy}propyl]-1-fluoromethanesulfonamide—Isomer 1]
< 0.1 µM	Cc1cc(C(CNS(=O)(=O)N(C)C)CO[C@H]2CC[C@@H](c3cccc(F)c3)CC2)c(=O)n(C)c1 (single isomer, unassigned; isomer 1) [Example 5r, (R or S) 3-[1-[(dimethylsulfamoyl)amino]-3-{[(CIS)-4-(3-fluorophenyl)cyclohexyl]oxy}propan-2-yl]-1,5-dimethyl-1,2-dihydropyridin-2-one—Isomer 1]
< 0.1 µM	Cc1cc(C(CNS(C)(=O)=O)CO[C@H]2CC[C@@H](c3cccc(F)c3)CC2)c(=O)n(C(F)F)c1 (single isomer, unassigned; isomer 1) [Example 5y, (R or S) N-[2-[1-(difluoromethyl)-5-methyl-2-oxo-1,2-dihydropyridin-3-yl]-3-{[(CIS)-4-(3-fluorophenyl)cyclohexyl]oxy}propyl]methanesulfonamide—Isomer 1]
> 10 µM	CS(=O)(=O)NCC(CO[C@H]1CC[C@@H](c2ccccc2)CC1)n1ccccc1=O (single isomer, unassigned; isomer 2) [Example 1b, (S or R) N-[2-(2-oxo-1,2-dihydropyridin-1-yl)-3-{[(CIS)-4-phenylcyclo-hexyl]oxy}propyl] methane-sulfonamide- Isomer 2]
0.1 to 1 µM	Cc1cccn(C(CNS(C)(=O)=O)CO[C@H]2CC[C@@H](c3ccccc3)CC2)c1=O (single isomer, unassigned; isomer 2) [Example 1e, (S or R) N-[(2R)-2-(3-methyl-2-oxo-1,2-dihydropyridin-1-yl)-3-{[(CIS)-4-phenylcyclo-hexyl]oxy}propyl] methane-sulfonamide- Isomer 2]
> 10 µM	Cc1ccn(C(CNS(C)(=O)=O)CO[C@H]2CC[C@@H](c3ccccc3)CC2)n1 (single isomer, unassigned; isomer 2) [Example 2ac, (S or R) N-[2-(3-methyl-1H-pyrazol-1-yl)-3-{[(CIS)-4-phenylcyclohexyl]oxy}propyl]methanesulfonamide-Isomer 2]
> 10 µM	Cc1ccnn1C(CNS(C)(=O)=O)CO[C@H]1CC[C@@H](c2ccccc2)CC1 (single isomer, unassigned; isomer 2) [Example 2ae, (S or R) N-[2-(5-methyl-1H-pyrazol-1-yl)-3-{[(CIS)-4-phenylcyclohexyl]oxy}propyl]methanesulfonamide-Isomer 2]
1 to 10 µM	Cc1cc(C)c(=O)n(C(CNS(C)(=O)=O)CO[C@H]2CC[C@@H](c3cccc(F)c3)CC2)c1 (single isomer, unassigned; isomer 2) [Example 2ag, (S or R) N-[2-(3,5-dimethyl-2-oxo-1,2-dihydropyridin-1-yl)-3-{[(CIS)-4-(3-fluorophenyl)cyclohexyl]oxy}propyl]methanesulfonamide-Isomer 2]
1 to 10 µM	Cc1cc(Cl)cn(C(CNS(C)(=O)=O)CO[C@H]2CC[C@@H](c3cccc(F)c3)CC2)c1=O (single isomer, unassigned; isomer 2) [Example 2ai, (S or R) N-[2-(5-chloro-3-methyl-2-oxo-1,2-dihydropyridin-1-yl)-3-{[(CIS)-4-(3-fluorophenyl)cyclohexyl]oxy}propyl]methanesulfonamide-Isomer 2]
1 to 10 µM	Cc1cc(C)c(=O)n(C(CNS(=O)(=O)C2CC2)CO[C@H]2CC[C@@H](c3cccc(F)c3)CC2)c1 (single isomer, unassigned; isomer 2) [Example 2an, (S or R) N-[2-(3,5-dimethyl-2-oxo-1,2-dihydropyridin-1-yl)-3-{[(CIS)-4-(3-fluorophenyl)cyclohexyl]oxy}propyl]cyclopropanesulfonamide-Isomer 2]
0.1 to 1 µM	Cc1cc(C)c(=O)n(C(CNS(=O)(=O)N(C)C)CO[C@H]2CC[C@@H](c3cccc(F)c3)CC2)c1 (single isomer, unassigned; isomer 2) [Example 2as, (S or R) 1-[1-[(dimethylsulfamoyl)amino]-3-{[(CIS)-4-(3-fluorophenyl)cyclohexyl]oxy}propan-2-yl]-3,5-dimethyl-1,2-dihydropyridin-2-one-Isomer 2]
0.1 to 1 µM	Cc1cc(C)c(=O)n(C(CNS(=O)(=O)CF)CO[C@H]2CC[C@@H](c3cccc(F)c3)CC2)c1 (single isomer, unassigned; isomer 2) [Example 2av, (S or R) N-[2-(3,5-dimethyl-2-oxo-1,2-dihydropyridin-1-yl)-3-{[(CIS)-4-(3-fluorophenyl)cyclohexyl]oxy}propyl]-1-fluoromethanesulfonamide-Isomer 2]
0.1 to 1 µM	CCc1cccn(C(CNS(C)(=O)=O)CO[C@H]2CC[C@@H](c3ccccc3)CC2)c1=O (single isomer, unassigned; isomer 2) [Example 2b, (S or R) N-[2-(3-ethyl-2-oxo-1,2-dihydropyridin-1-yl)-3-{[(CIS)-4-phenylcyclohexyl]oxy}propyl]methanesulfonamide-Isomer 2]
> 10 µM	Cc1cc(C)c(=O)n(C(CNS(C)(=O)=O)COC2CCN(c3ncc(F)cn3)CC2)c1 (single isomer, unassigned; isomer 2) [Example 2ba, (S or R) N-[2-(3,5-dimethyl-2-oxo-1,2-dihydropyridin-1-yl)-3-{[1-(5-fluoropyrimidin-2-yl)piperidin-4-yl]oxy}propyl]methanesulfonamide-Isomer 2]
> 10 µM	CS(=O)(=O)NCC(CO[C@H]1CC[C@@H](c2ccccc2)CC1)n1cccc(F)c1=O (single isomer, unassigned; isomer 2) [Example 2h, (S or R) N-[2-(3-fluoro-2-oxo-1,2-dihydropyridin-1-yl)-3-{[(CIS)-4-phenylcyclohexyl]oxy}propyl]methanesulfonamide-Isomer 2]
> 10 µM	Cc1ccc(=O)n(C(CNS(C)(=O)=O)CO[C@H]2CC[C@@H](c3ccccc3)CC2)c1 (single isomer, unassigned; isomer 2) [Example 2k, (S or R) N-[2-(5-methyl-2-oxo-1,2-dihydropyridin-1-yl)-3-{[(CIS)-4-phenylcyclohexyl]oxy}propyl]methanesulfonamide-Isomer 2]
> 10 µM	Cc1ccn(C(CNS(C)(=O)=O)CO[C@H]2CC[C@@H](c3ccccc3)CC2)c(=O)c1C (single isomer, unassigned; isomer 2) [Example 2o, (S or R) N-[2-(3,4-dimethyl-2-oxo-1,2-dihydropyridin-1-yl)-3-{[(CIS)-4-phenylcyclohexyl]oxy}propyl]methanesulfonamide-Isomer 2]
1 to 10 µM	Cc1cc(C)c(=O)n(C(CNS(C)(=O)=O)CO[C@H]2CC[C@@H](c3ccccc3)CC2)c1 (single isomer, unassigned; isomer 2) [Example 2u, (S or R) N-[2-(3,5-dimethyl-2-oxo-1,2-dihydropyridin-1-yl)-3-{[(CIS)-4-phenylcyclohexyl]oxy}propyl]methanesulfonamide-Isomer 2]
1 to 10 µM	Cc1cccn(C(CO[C@H]2CC[C@@H](c3ccccc3)CC2)C(C)NS(C)(=O)=O)c1=O (single isomer, unassigned; isomer 2) [Example 3b, (2S or 2R) and (3S or 3R) N-[3-(3-methyl-2-oxo-1,2-dihydropyridin-1-yl)-4-{[(CIS)-4-phenylcyclohexyl]oxy}butan-2-yl]methanesulfonamide—Isomer 2]
> 10 µM	Cn1cccc(C(CNS(C)(=O)=O)CO[C@H]2CC[C@@H](c3ccccc3)CC2)c1=O (single isomer, unassigned; isomer 2) [Example 4b, (S or R) N-[2-(1-methyl-2-oxo-1,2-dihydropyridin-3-yl)-3-{[(CIS)-4-phenylcyclohexyl]oxy}propyl]methanesulfonamide—Isomer 2]
0.1 to 1 µM	Cc1cc(C(CNS(=O)(=O)N(C)C)CO[C@H]2CC[C@@H](c3cccc(F)c3)CC2)c(=O)n(C(F)F)c1 (single isomer, unassigned; isomer 2) [Example 5ac, (S or R) 1-(difluoromethyl)-3-[1-[(dimethylsulfamoyl)amino]-3-{[(CIS)-4-(3-fluorophenyl)cyclohexyl]oxy}propan-2-yl]-5-methyl-1,2-dihydropyridin-2-one—Isomer 2]
